Legend:
EMT6 = test: Cytotoxicity against mouse EMT6 cells assessed as inhibition of cell growth incubated for 3 days by SRB assay; assay type: functional, cell-based; settings: EMT6, 72 h
MES-SA = test: Cytotoxicity against human MES-SA cells assessed as inhibition of cell growth incubated for 72 hrs by CellTiter-Glo luminescent assay; assay type: functional, cell-based
M14 = test: Cytotoxicity against human M14 cells assessed as cell growth inhibition by measuring lethal concentration by MTT assay; assay type: functional; settings: read-out: LC50 (the source's name)
NCI-H460 = test: Cytotoxicity against human NCI-H460 cells assessed as cell growth inhibition by measuring lethal concentration by MTT assay; assay type: functional; settings: read-out: LC50 (the source's name)
COLO 205 = test: Cytotoxicity against human COLO 205 cells assessed as cell growth inhibition by measuring lethal concentration by MTT assay; assay type: functional; settings: read-out: LC50 (the source's name)
EKVX = test: Cytotoxicity against human EKVX cells assessed as cell growth inhibition by measuring lethal concentration by MTT assay; assay type: functional; settings: read-out: LC50 (the source's name)
SF-268 = test: Cytotoxicity against human SF-268 cells assessed as cell growth inhibition by measuring lethal concentration by MTT assay; assay type: functional; settings: read-out: LC50 (the source's name)
RPMI-8226 = test: Cytotoxicity against human RPMI-8226 cells assessed as cell growth inhibition by measuring lethal concentration by MTT assay; assay type: functional; settings: read-out: LC50 (the source's name)
ACHN = test: Cytotoxicity against human ACHN cells assessed as cell growth inhibition by measuring lethal concentration by MTT assay; assay type: functional; settings: read-out: LC50 (the source's name)
CAKI-1 = test: Cytotoxicity against human CAKI-1 cells assessed as cell growth inhibition by measuring lethal concentration by MTT assay; assay type: functional; settings: read-out: LC50 (the source's name)
UO-31 = test: Cytotoxicity against human UO-31 cells assessed as cell growth inhibition by measuring lethal concentration by MTT assay; assay type: functional; settings: read-out: LC50 (the source's name)
NCI-H226 = test: Cytotoxicity against human NCI-H226 cells assessed as cell growth inhibition by measuring lethal concentration by MTT assay; assay type: functional; settings: read-out: LC50 (the source's name)
HT-29 = test: Cytotoxicity against human HT-29 cells assessed as cell growth inhibition by measuring lethal concentration by MTT assay; assay type: functional; settings: read-out: LC50 (the source's name)
T47D = test: Cytotoxicity against human T47D cells assessed as cell growth inhibition by measuring lethal concentration by MTT assay; assay type: functional; settings: read-out: LC50 (the source's name)
SK-MEL-5 = test: Cytotoxicity against human SK-MEL-5 cells assessed as cell growth inhibition by measuring lethal concentration by MTT assay; assay type: functional; settings: read-out: LC50 (the source's name)
U-251 = test: Cytotoxicity against human U-251 cells assessed as cell growth inhibition by measuring lethal concentration by MTT assay; assay type: functional; settings: read-out: LC50 (the source's name)
SF-295 = test: Cytotoxicity against human SF-295 cells assessed as cell growth inhibition by measuring lethal concentration by MTT assay; assay type: functional; settings: read-out: LC50 (the source's name)
Malme-3M = test: Cytotoxicity against human Malme-3M cells assessed as cell growth inhibition by measuring lethal concentration by MTT assay; assay type: functional; settings: read-out: LC50 (the source's name)
SN12C = test: Cytotoxicity against human SN12C cells assessed as cell growth inhibition by measuring lethal concentration by MTT assay; assay type: functional; settings: read-out: LC50 (the source's name)
A549 = test: Cytotoxicity against human A549 cells assessed as cell growth inhibition by measuring lethal concentration by MTT assay; assay type: functional; settings: read-out: LC50 (the source's name)
SK-MEL-28 = test: Cytotoxicity against human SK-MEL-28 cells assessed as cell growth inhibition by measuring lethal concentration by MTT assay; assay type: functional; settings: read-out: LC50 (the source's name)
A498 = test: Cytotoxicity against human A498 cells assessed as cell growth inhibition by measuring lethal concentration by MTT assay; assay type: functional; settings: read-out: LC50 (the source's name)
NCI-H23 = test: Cytotoxicity against human NCI-H23 cells assessed as cell growth inhibition by measuring lethal concentration by MTT assay; assay type: functional; settings: read-out: LC50 (the source's name)
MDA-MB-435 = test: Cytotoxicity against human MDA-MB-435 cells assessed as cell growth inhibition by measuring lethal concentration by MTT assay; assay type: functional; settings: read-out: LC50 (the source's name)
IGROV-1 = test: Cytotoxicity against human IGROV-1 cells assessed as cell growth inhibition by measuring lethal concentration by MTT assay; assay type: functional; settings: read-out: LC50 (the source's name)
SF-539 = test: Cytotoxicity against human SF-539 cells assessed as cell growth inhibition by measuring lethal concentration by MTT assay; assay type: functional; settings: read-out: LC50 (the source's name)
SK-MEL-2 = test: Cytotoxicity against human SK-MEL-2 cells assessed as cell growth inhibition by measuring lethal concentration by MTT assay; assay type: functional; settings: read-out: LC50 (the source's name)
NCI-H522 = test: Cytotoxicity against human NCI-H522 cells assessed as cell growth inhibition by measuring lethal concentration by MTT assay; assay type: functional; settings: read-out: LC50 (the source's name)
UACC-257 = test: Cytotoxicity against human UACC-257 cells assessed as cell growth inhibition by measuring lethal concentration by MTT assay; assay type: functional; settings: read-out: LC50 (the source's name)
Hs-578T = test: Cytotoxicity against human Hs-578T cells assessed as cell growth inhibition by measuring lethal concentration by MTT assay; assay type: functional; settings: read-out: LC50 (the source's name)
OVCAR-8 = test: Cytotoxicity against human OVCAR-8 cells assessed as cell growth inhibition by measuring lethal concentration by MTT assay; assay type: functional; settings: read-out: LC50 (the source's name)
SNB-19 = test: Cytotoxicity against human SNB-19 cells assessed as cell growth inhibition by measuring lethal concentration by MTT assay; assay type: functional; settings: read-out: LC50 (the source's name)
UACC-62 = test: Cytotoxicity against human UACC-62 cells assessed as cell growth inhibition by measuring lethal concentration by MTT assay; assay type: functional; settings: read-out: LC50 (the source's name)
OVCAR-5 = test: Cytotoxicity against human OVCAR-5 cells assessed as cell growth inhibition by measuring lethal concentration by MTT assay; assay type: functional; settings: read-out: LC50 (the source's name)
MDA-N = test: Cytotoxicity against human MDA-N cells assessed as cell growth inhibition by measuring lethal concentration by MTT assay; assay type: functional; settings: read-out: LC50 (the source's name)
BT-549 = test: Cytotoxicity against human BT-549 cells assessed as cell growth inhibition by measuring lethal concentration by MTT assay; assay type: functional; settings: read-out: LC50 (the source's name)
[1] = Cytotoxicity against human […] cells assessed as cell growth inhibition by measuring lethal concentration by MTT assay; assay type: functional; settings: read-out: LC50 (the source's name)
HCC 2998 = test: Cytotoxicity against human HCC 2998 cells assessed as cell growth inhibition by measuring lethal concentration by MTT assay; assay type: functional; settings: read-out: LC50 (the source's name)
OVCAR-4 = test: Cytotoxicity against human OVCAR-4 cells assessed as cell growth inhibition by measuring lethal concentration by MTT assay; assay type: functional; settings: read-out: LC50 (the source's name)
MOLT-4 = test: Cytotoxicity against human MOLT-4 cells assessed as cell growth inhibition by measuring lethal concentration by MTT assay; assay type: functional; settings: read-out: LC50 (the source's name)
HOP-92 = test: Cytotoxicity against human HOP-92 cells assessed as cell growth inhibition by measuring lethal concentration by MTT assay; assay type: functional; settings: read-out: LC50 (the source's name)
OVCAR-3 = test: Cytotoxicity against human OVCAR-3 cells assessed as cell growth inhibition by measuring lethal concentration by MTT assay; assay type: functional; settings: read-out: LC50 (the source's name)
KM12 = test: Cytotoxicity against human KM12 cells assessed as cell growth inhibition by measuring lethal concentration by MTT assay; assay type: functional; settings: read-out: LC50 (the source's name)
CCRF-CEM = test: Cytotoxicity against human CCRF-CEM cells assessed as cell growth inhibition by measuring lethal concentration by MTT assay; assay type: functional; settings: read-out: LC50 (the source's name)
786-0 = test: Cytotoxicity against human 786-0 cells assessed as cell growth inhibition by measuring lethal concentration by MTT assay; assay type: functional; settings: read-out: LC50 (the source's name)
HOP-62 = test: Cytotoxicity against human HOP-62 cells assessed as cell growth inhibition by measuring lethal concentration by MTT assay; assay type: functional; settings: read-out: LC50 (the source's name)
PC-3 = test: Cytotoxicity against human PC-3 cells assessed as cell growth inhibition by measuring lethal concentration by MTT assay; assay type: functional; settings: read-out: LC50 (the source's name)
HCT-116 = test: Cytotoxicity against human HCT-116 cells assessed as cell growth inhibition by measuring lethal concentration by MTT assay; assay type: functional; settings: read-out: LC50 (the source's name)
HCT-15 = test: Cytotoxicity against human HCT-15 cells assessed as cell growth inhibition by measuring lethal concentration by MTT assay; assay type: functional; settings: read-out: LC50 (the source's name)
SW-620 = test: Cytotoxicity against human SW620 cells assessed as cell growth inhibition by measuring lethal concentration by MTT assay; assay type: functional; settings: read-out: LC50 (the source's name)
HL-60 = test: Cytotoxicity against human HL-60 cells assessed as cell growth inhibition by measuring lethal concentration by MTT assay; assay type: functional; settings: read-out: LC50 (the source's name)
TK-10 = test: Cytotoxicity against human TK-10 cells assessed as cell growth inhibition by measuring lethal concentration by MTT assay; assay type: functional; settings: read-out: LC50 (the source's name)
SNB-75 = test: Cytotoxicity against human SNB-75 cells assessed as cell growth inhibition by measuring lethal concentration by MTT assay; assay type: functional; settings: read-out: LC50 (the source's name)
NCI/ADR-RES = test: Cytotoxicity against human MCF7ADR cells assessed as cell growth inhibition by measuring lethal concentration by MTT assay; assay type: functional; settings: read-out: LC50 (the source's name)
DU-145 = test: Cytotoxicity against human DU-145 cells assessed as cell growth inhibition by measuring lethal concentration by MTT assay; assay type: functional; settings: read-out: LC50 (the source's name)
SK-OV-3 = test: Cytotoxicity against human SK-OV-3 cells assessed as cell growth inhibition by measuring lethal concentration by MTT assay; assay type: functional; settings: read-out: LC50 (the source's name)

COc1cc2c(cc1OCCCCCC(=O)N1C[C@H](CCl)c3c1cc(O)c1ccccc31)N=C[C@@H]1CCCN1C2=O
7.8 pM: IC50 (EMT6)

COc1c2c(c(O)c3c4c(c(C)cc13)C1O[C@@]3(C(OC)OC)OC1[C@@](O[C@H]1C[C@@H](O)[C@@](O)(C(C)=O)[C@@H](C)O1)(O4)C31CO1)C(=O)[C@@H](C)C[C@@H]2O[C@H]1C[C@@](C)(O)[C@H](OC(C)=O)[C@@H](C)O1 (stereo partly specified)
0.74 nM: IC50 (MES-SA)

C=C1C[C@H]2C=Nc3cc(OCCCCCCCCCCOc4cc5c(cc4OC)C(=O)N4CC(=C)C[C@H]4C=N5)c(OC)cc3C(=O)N2C1
0.14 nM: CC50 (M14) | CC50 (NCI-H460) | CC50 (COLO 205) | CC50 (EKVX) | CC50 (SF-268) | CC50 (RPMI-8226) | CC50 (ACHN) | CC50 (CAKI-1) | CC50 (UO-31) | CC50 (NCI-H226) | CC50 (HT-29) | CC50 (T47D) | CC50 (SK-MEL-5) | CC50 (U-251) | CC50 (SF-295) | CC50 (Malme-3M) | CC50 (SN12C) | CC50 (A549) | CC50 (SK-MEL-28) | CC50 (A498) | CC50 (NCI-H23) | CC50 (MDA-MB-435) | CC50 (IGROV-1) | CC50 (SF-539) | CC50 (SK-MEL-2) | CC50 (NCI-H522) | CC50 (UACC-257) | CC50 (Hs-578T) | CC50 (OVCAR-8) | CC50 (SNB-19) | CC50 (UACC-62) | CC50 (OVCAR-5) | CC50 (MDA-N) | CC50 (BT-549) | CC50 [1] | CC50 (HCC 2998) | CC50 (OVCAR-4) | CC50 (MOLT-4) | CC50 (HOP-92) | CC50 (OVCAR-3) | CC50 (KM12) | CC50 (CCRF-CEM) | CC50 (786-0) | CC50 (HOP-62) | CC50 (PC-3) | CC50 (HCT-116) | CC50 (HCT-15) | CC50 (SW-620) | CC50 (HL-60) | CC50 (TK-10) | CC50 (SNB-75) | CC50 (NCI/ADR-RES) | CC50 (DU-145) | CC50 (SK-OV-3)

Source: ChEMBL document CHEMBL5608211, “Antibody-drug conjugates for targeted cancer therapy: Recent advances in potential payloads” (Eur J Med Chem, 2024)
